How the values were obtained:
Format in all cases: biochemical
15-LOX-1 [1] = target: T1, 15-LOX-1 (Homo sapiens, UniProt P16050); assay: Jump dilution assay on recombinant 15-LOX-1; design: His-tag (N); made in house; host or cells: E. coli BL21(DE3); settings: 10 µM for 20 min at room temperature, then 100-fold dilution
T1 sequence (P16050 1-662): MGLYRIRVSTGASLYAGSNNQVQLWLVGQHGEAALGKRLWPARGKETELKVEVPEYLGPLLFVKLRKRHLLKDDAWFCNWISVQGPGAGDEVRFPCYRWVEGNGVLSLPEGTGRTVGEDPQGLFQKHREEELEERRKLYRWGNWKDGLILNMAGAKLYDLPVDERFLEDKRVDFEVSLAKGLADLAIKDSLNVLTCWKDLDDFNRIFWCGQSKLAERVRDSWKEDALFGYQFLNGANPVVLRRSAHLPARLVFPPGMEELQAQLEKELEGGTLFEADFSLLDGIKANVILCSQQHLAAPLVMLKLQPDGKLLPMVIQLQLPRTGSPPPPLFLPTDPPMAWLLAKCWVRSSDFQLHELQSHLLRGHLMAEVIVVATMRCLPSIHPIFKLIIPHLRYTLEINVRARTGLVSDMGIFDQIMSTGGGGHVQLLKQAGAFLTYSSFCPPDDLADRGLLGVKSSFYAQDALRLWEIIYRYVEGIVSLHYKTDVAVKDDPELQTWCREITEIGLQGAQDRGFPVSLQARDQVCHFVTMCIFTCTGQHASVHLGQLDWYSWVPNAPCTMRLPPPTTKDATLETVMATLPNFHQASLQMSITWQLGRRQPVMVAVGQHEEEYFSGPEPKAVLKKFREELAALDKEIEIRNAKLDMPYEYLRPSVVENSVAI
Protocol: Figure S3. Labelox B labeled endogenous LOXs are immunoprecipitated by streptavidin beads. (A) A549 cell lysates were treated with. Labelox B. After labeling, free Labelox B was removed by Vivaspin
2. Labelox B labeled proteins were precipitated by Dynabeads and analyzed by Western blotting. (B) Uncropped Western blots for (A)
LOX-1 was incubated with Labelox B at 10 µM for 20min at room temperature to ensure 100% inhibition. Then, the enzyme/probe mixture was dilution 100-fold and employed for linoleic acid conversion. The group incubated with vehicle was condisered as positive control, while the group in […] of 15-LOX-1 was negative control. […]

15-LOX-1 [2] = target: T1, 15-LOX-1; assay: Sandwich ELISA of Labelox B biotinylation in A549 cell lysate, 15-LOX-1 capture; design: the endogenous LOXs were captured on an anti‐LOX antibody precoated 96‐well plate; endogenous in cells; host or cells: A549 cell lysate; settings: HRP-streptavidin detection, read-out: EC50 of labeling
Protocol: (§1) Labelox B efficiently labels endogenous LOXs. Lipoxygenase labeling by Labelox B was investigated using cell‐based assays. As a first step, labeling efficiency was estimated in intact RAW 264.7 macrophage cells that were treated with Labelox B in concentrations ranging between 1 μM and 100 μM with incubation times between 0.5 h and 6 h. […] As a next step, a sandwich ELISA assay was established in order to find proof that probe Labelox B is indeed labeling proteins with lipoxygenase enzyme activity. Towards this aim, A549 cell lysates were treated with sub‐micromolar to micromolar concentrations of Labelox B. Subsequently, the endogenous LOXs were captured on an anti‐LOX antibody precoated 96‐well plate followed by detection of Labelox B mediated biotinylation using HRP‐conjugated streptavidin. […] Furthermore, probe Labelox B enabled visualization of localized LOX activity in living cells (Figure 2 c). […] The fluorescence intensity increased with increasing doses of Labelox B and labeling was observed throughout the cells in the cytoplasm and the nucleus of A549.
(§2) Figure 2 Labelox B labels endogenous LOXs in a dose‐ and time‐dependent manner. a, b) Western blot analysis of Labelox B labeled LOXs in intact RAW 264.7 for indicated doses and time points. […] The pictures were captured by a Leica DM4000b fluorescence microscope.

12-LOX = target: T2, 12-LOX (Homo sapiens, UniProt P18054); assay: Sandwich ELISA of Labelox B biotinylation in A549 cell lysate, 12-LOX capture; settings: HRP-streptavidin detection, read-out: EC50 of labeling
T2 construct: the endogenous LOXs were captured on an anti‐LOX antibody precoated 96‐well plate; endogenous in cells; host or cells: A549 cell lysate
T2 sequence (P18054 1-663): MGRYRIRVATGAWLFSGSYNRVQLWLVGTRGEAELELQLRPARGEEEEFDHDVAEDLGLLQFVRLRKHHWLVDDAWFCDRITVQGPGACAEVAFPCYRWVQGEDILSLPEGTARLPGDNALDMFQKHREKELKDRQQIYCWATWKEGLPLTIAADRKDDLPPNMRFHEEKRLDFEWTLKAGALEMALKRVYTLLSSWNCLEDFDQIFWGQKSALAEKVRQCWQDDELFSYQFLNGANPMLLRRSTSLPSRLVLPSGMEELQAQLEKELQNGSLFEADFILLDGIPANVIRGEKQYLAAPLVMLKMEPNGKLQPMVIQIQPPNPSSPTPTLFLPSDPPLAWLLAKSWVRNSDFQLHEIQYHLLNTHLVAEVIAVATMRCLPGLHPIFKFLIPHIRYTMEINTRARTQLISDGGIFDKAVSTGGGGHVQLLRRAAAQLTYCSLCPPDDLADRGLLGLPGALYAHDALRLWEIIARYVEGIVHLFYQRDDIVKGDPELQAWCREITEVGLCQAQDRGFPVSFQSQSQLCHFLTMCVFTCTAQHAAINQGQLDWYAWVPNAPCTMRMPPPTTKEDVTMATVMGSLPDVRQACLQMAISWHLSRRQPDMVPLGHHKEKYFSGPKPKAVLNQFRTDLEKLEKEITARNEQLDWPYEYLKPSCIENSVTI
Protocol: as §1, §2

CCCCCC#CCC#CCOC(=O)CCCC[C@@H]1SC[C@@H]2NC(=O)N[C@@H]21 [Labelox B (3)]
Reversibility of inhibition (15-LOX-1 [1]): irreversibly inhibits | EC50 (15-LOX-1 [2]): ~3.5 µM | EC50 (12-LOX): ~3.5 µM
